From the supplement of paper PMC10307832

Key:
Experiment in all cases: relative viability (nuclei count vs DMSO), 5 days (fraction); higher = more cells survive
NCI-H1648 = test system: NCI-H1648
How it was run: (§1)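 Lung cancer cell lines were pin-tool dosed in 1536-well plates on the day after seeding, with either a lone drug or a fixed anchor-drug dose plus five library-drug doses (not always all listed) in √10 steps. Nuclei were counted on 4× images after 5 days. Relative viability is the ratio of treated-well to vehicle-well nuclei counts, with each value a median of duplicate plates.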

NCI-H2170 = test system: NCI-H2170
How it was run: as §1

NCI-H2023 = test system: NCI-H2023
How it was run: as §1

NCI-H520 = test system: NCI-H520
How it was run: as §1

IA-LM = test system: IA-LM
How it was run: as §1

NCI-H727 = test system: NCI-H727
How it was run: as §1

A549 = test system: A549
How it was run: as §1

## Cc1cn(-c2cc(NC(=O)c3ccc(C)c(Nc4nccc(-c5cccnc5)n4)c3)cc(C(F)(F)F)c2)cn1 [Nilotinib] + O=C(CCCCCCC(=O)Nc1ccccc1)NO [Vorinostat] (partner 1 µM)
NCI-H1648; first compound 0.001 µM
  relative viability: 0.394
NCI-H1648; first compound 0.003162 µM
  relative viability: 0.367
NCI-H1648; first compound 0.01 µM
  relative viability: 0.372
NCI-H1648; first compound 0.03162 µM
  relative viability: 0.172
NCI-H2170; first compound 0.001 µM
  relative viability: 0.818
NCI-H2170; first compound 0.003162 µM
  relative viability: 1.16
NCI-H2170; first compound 0.01 µM
  relative viability: 1.05
NCI-H2170; first compound 0.03162 µM
  relative viability: 0.622
NCI-H2170; first compound 0.1 µM
  relative viability: 0.877
NCI-H2023; first compound 0.001 µM
  relative viability: 0.469
NCI-H2023; first compound 0.003162 µM
  relative viability: 0.455
NCI-H2023; first compound 0.01 µM
  relative viability: 1.06
NCI-H2023; first compound 0.03162 µM
  relative viability: 0.41
NCI-H2023; first compound 0.1 µM
  relative viability: 0.174
NCI-H520; first compound 0.001 µM
  relative viability: 0.584
NCI-H520; first compound 0.003162 µM
  relative viability: 0.79
NCI-H520; first compound 0.01 µM
  relative viability: 0.81
NCI-H520; first compound 0.03162 µM
  relative viability: 0.617
NCI-H520; first compound 0.1 µM
  relative viability: 0.699
IA-LM; first compound 0.001 µM
  relative viability: 0.526
IA-LM; first compound 0.01 µM
  relative viability: 0.987
IA-LM; first compound 0.03162 µM
  relative viability: 0.352
IA-LM; first compound 0.1 µM
  relative viability: 0.841
NCI-H727; first compound 0.001 µM
  relative viability: 1.12
NCI-H727; first compound 0.003162 µM
  relative viability: 1.35
NCI-H727; first compound 0.01 µM
  relative viability: 1.16
NCI-H727; first compound 0.03162 µM
  relative viability: 1.15
NCI-H727; first compound 0.1 µM
  relative viability: 1.05

## CCNC(=O)c1noc(-c2cc(C(C)C)c(O)cc2O)c1-c1ccc(CN2CCOCC2)cc1 [Luminespib] + CC(=O)Nc1cccc(-n2c(=O)n(C3CC3)c(=O)c3c(Nc4ccc(I)cc4F)n(C)c(=O)c(C)c32)c1 [Trametinib] (partner 0.02 µM)
NCI-H1648; first compound 0.002 µM
  relative viability: 0.395
NCI-H1648; first compound 0.006325 µM
  relative viability: 0.492
NCI-H1648; first compound 0.02 µM
  relative viability: 0.513
NCI-H1648; first compound 0.06325 µM
  relative viability: 0.407
NCI-H1648; first compound 0.2 µM
  relative viability: 0.278
NCI-H2170; first compound 0.002 µM
  relative viability: 0.915
NCI-H2170; first compound 0.006325 µM
  relative viability: 0.932
NCI-H2170; first compound 0.06325 µM
  relative viability: 0.896
NCI-H2170; first compound 0.2 µM
  relative viability: 0.841
NCI-H2023; first compound 0.002 µM
  relative viability: 0.49
NCI-H2023; first compound 0.006325 µM
  relative viability: 0.56
NCI-H2023; first compound 0.02 µM
  relative viability: 0.39
NCI-H2023; first compound 0.06325 µM
  relative viability: 0.0742
NCI-H2023; first compound 0.2 µM
  relative viability: 0.0679
NCI-H520; first compound 0.002 µM
  relative viability: 0.795
NCI-H520; first compound 0.006325 µM
  relative viability: 0.606
NCI-H520; first compound 0.02 µM
  relative viability: 0.371
NCI-H520; first compound 0.06325 µM
  relative viability: 0.114
NCI-H520; first compound 0.2 µM
  relative viability: 0.138
NCI-H727; first compound 0.002 µM
  relative viability: 0.422
NCI-H727; first compound 0.006325 µM
  relative viability: 0.397
NCI-H727; first compound 0.02 µM
  relative viability: 0.404
NCI-H727; first compound 0.06325 µM
  relative viability: 0.247
NCI-H727; first compound 0.2 µM
  relative viability: 0.253

## CN1CCN(CCOc2cc(OC3CCOCC3)c3c(Nc4c(Cl)ccc5c4OCO5)ncnc3c2)CC1 [Saracatinib] + Nc1ncn([C@H]2C[C@H](O)[C@@H](CO)O2)c(=O)n1 [Decitabine] (partner 2 µM)
NCI-H1648; first compound 0.02 µM
  relative viability: 0.534
NCI-H1648; first compound 0.2 µM
  relative viability: 0.367
NCI-H1648; first compound 0.6325 µM
  relative viability: 0.647
NCI-H1648; first compound 2 µM
  relative viability: 0.391
NCI-H2170; first compound 0.02 µM
  relative viability: 0.453
NCI-H2170; first compound 0.2 µM
  relative viability: 0.412
NCI-H2170; first compound 0.6325 µM
  relative viability: 0.452
NCI-H2170; first compound 2 µM
  relative viability: 0.415
NCI-H2023; first compound 0.02 µM
  relative viability: 0.245
NCI-H2023; first compound 0.2 µM
  relative viability: 0.176
NCI-H2023; first compound 0.6325 µM
  relative viability: 0.204
NCI-H2023; first compound 2 µM
  relative viability: 0.222
A549; first compound 0.02 µM
  relative viability: 0.266
A549; first compound 0.6325 µM
  relative viability: 0.279
A549; first compound 2 µM
  relative viability: 0.237
NCI-H520; first compound 0.02 µM
  relative viability: 0.544
NCI-H520; first compound 0.2 µM
  relative viability: 0.499
NCI-H520; first compound 0.6325 µM
  relative viability: 0.434
NCI-H520; first compound 2 µM
  relative viability: 0.346
NCI-H727; first compound 0.02 µM
  relative viability: 0.917
NCI-H727; first compound 0.2 µM
  relative viability: 0.894
NCI-H727; first compound 0.6325 µM
  relative viability: 0.992
NCI-H727; first compound 2 µM
  relative viability: 0.712

## Cc1csc(=NC2CCCCC2)n1/N=C/c1ccc(O)c(O)c1O [MIM1] + CC(=O)c1c(C)c2cnc(Nc3ccc(N4CCNCC4)cn3)nc2n(C2CCCC2)c1=O [Palbociclib] (partner 0.5 µM)
NCI-H1648; first compound 0.2 µM
  relative viability: 0.262
NCI-H1648; first compound 0.6325 µM
  relative viability: 0.284
NCI-H1648; first compound 2 µM
  relative viability: 0.311
NCI-H1648; first compound 6.325 µM
  relative viability: 0.276
NCI-H1648; first compound 20 µM
  relative viability: 0.248
NCI-H2170; first compound 0.2 µM
  relative viability: 0.38
NCI-H2170; first compound 0.6325 µM
  relative viability: 0.398
NCI-H2170; first compound 2 µM
  relative viability: 0.373
NCI-H2170; first compound 6.325 µM
  relative viability: 0.227
NCI-H2170; first compound 20 µM
  relative viability: 0.142
NCI-H2023; first compound 0.2 µM
  relative viability: 0.393
NCI-H2023; first compound 0.6325 µM
  relative viability: 0.387
NCI-H2023; first compound 2 µM
  relative viability: 0.391
NCI-H2023; first compound 6.325 µM
  relative viability: 0.194
NCI-H2023; first compound 20 µM
  relative viability: 0.0614
NCI-H520; first compound 0.2 µM
  relative viability: 0.195
NCI-H520; first compound 0.6325 µM
  relative viability: 0.239
NCI-H520; first compound 2 µM
  relative viability: 0.201
NCI-H520; first compound 6.325 µM
  relative viability: 0.22
NCI-H520; first compound 20 µM
  relative viability: 0.183
NCI-H727; first compound 0.2 µM
  relative viability: 0.634
NCI-H727; first compound 0.6325 µM
  relative viability: 0.686
NCI-H727; first compound 2 µM
  relative viability: 0.605
NCI-H727; first compound 6.325 µM
  relative viability: 0.546
NCI-H727; first compound 20 µM
  relative viability: 0.472
